Where two headings read alike, the source gives them in different places. *1 amine or outer side, *2 acyl side, *3 side chain or, on linkers, in order; H or OH if unused. Where a SMILES comes first, the peptide text is derived from it. [ ]: non-standard residue; d: D form. The star is where a group is joined. X2 = CC(C)C[C@@H](C(N)=O)S(=O)(=O)C[C@H](Cc1ccccc1)N*; X1 = CN(/C(=C\c1ccccc1)C(=O)[*:2])[*:1]; pGlu = O=C1CC[C@@H](C(=O)O)N1
Legend:
[1] = target: T1, bombesin receptor (Mus musculus, UniProt P21729); experiment: Competitive binding of 125I-GRP to the bombesin receptor in mouse pancreas membranes
T1 construct: from tissue
Protocol: (§1) Pept. […] Pept 32: 241-251, 1991.
The pancreas from one or more mice were pooled and homogenized in 50 mM HEPES (pH 7.4) containing 120 mM NaCl, 5 mM KCl, and protease inhibitors (1 μg/ml aprotinin, leupeptin, pepstatin; 4 μg/ml bacitracin, antipain, bestatin; 100 μM PMSF; 1 mM EDTA) at 4° C. and centrifuged at 37,500 × g for 15 minutes. The pellet was resuspended in 50 mM HEPES (pH 7.4) containing 10 mM EDTA, 300 mM KCl, and protease inhibitors, and then incubated for 30 minutes at 4° C. The suspension was centrifuged as above and the pellet was washed two times in 50 mM HEPES (pH 7.4) containing 0.8 μg/ml thiorphan and protease inhibitors, and again centrifuged. The tissue was then resuspended in incubation buffer (1 ml per 4 mg pancreas) and incubated for 15 minutes at room temperature, then 250 μl were added to each assay tube to commence the assay. The assay tubes contained incubation buffer consisting of 50 mM HEPES (pH 7.4), 0.5% BSA, protease inhibitors, 2 mM MnCl2, 0.8 μg/ml thiorphan, 1 μM somatostatin, and concentrations of ^125 I-GRP and peptides as needed in a final volume of 500 μl. The assay was allowed to proceed to equilibrium for 90 minutes at room temperature. After this time, the contents of each tube were rapidly filtered over Whatman GF/B filters presoaked in 0.1% polyethyleneimine and the tubes and filters were rapidly washed three times with ice-cold 50 mM HEPES (pH 7.4). Filter-bound radioactivity was quantitated in a gamma counter. Competition of iodinated GRP binding by test compounds or standards was expressed as a percentage of ^125 I-GRP binding in the absence of peptide. Affinity and maximal binding were calculated with LIGAND (Biosoft, Cambridge, UK).

[2] = target: T1, bombesin receptor; experiment: Phosphatidylinositol (PI) turnover in chopped mouse pancreas; assay type: cell-based
Protocol: as §1
Pancrea from mice were chopped at 350 μm with a tissue chopper and pooled in Krebs-Hepes buffer [118 mM NaCl, 1.2 mM K2 PO4, 4.7 mM KCl, 1.2 mM MgSO4, 1.0 mM CaCl2, 11.7 mM glucose, 20 mM Hepes (pH 7.4)]. The chopped tissue was washed once with oxygenated Krebs-Hepes,then incubated for 30 minutes in 37° C. oxygenated Krebs-Hepes buffer with fresh buffer after 15 minutes. The tissue was then incubated in this buffer containing 200 μCi of [^3 H]inositot at 37° C. for 1 hour. The tissue was then washed twice and incubated for another 30 minutes in oxygenated Krebs-Hepes (containing 10 mM Li+) at 37° C. and with fresh buffer change after 15 minutes. Portions of the tissue mass (approximately 10 mg per assay tube) were then placed in Li+ buffer with protease inhibitors (40 μg/ml bacitracin, 4 μg/ml leupeptin, 4 μg/ml chymostatin, 0.8 μg/ml thiorphan), 0.1% BSA, and 0.1-1000 μM peptide. After 60 minutes at room temperature, the phosphatidylinositol turnover was terminated by the addition of 940 μl chloroform:methanol (1:2), followed by 310 μl chloroform, followed by 310 μl water. Each tube was then vortexed three times for 5 seconds each time and then centrifuged at […] for 8 minutes to separate the phases. 50 μl of the bottom phase (chloroform) was withdrawn from each tube and placed in a counting vial, dried, and counted in scintillation fluid. 900 μl of the top (aqueous) phase was then mixed with 2.1 ml water and loaded onto a 0.5 ml Biorad AG-1×8 (formate) ion exchange column. The material on the columns was washed in order with: 1) 10 ml of water 2) 5 ml of […] disodium tetraborate/60 mM sodium formate 3) 10 ml of 1M ammonium formate in 0.1M formic acid. The final (third) wash was collected and one ml was mixed with 14 ml of Bio-Safe or E-Colume scintillant and counted. The ratio of these counts (total inositol phosphates) to the corresponding organic phase counts (inositol incorporated into the tissue) was then calculated for each sample. The ratios in the presence of test compound and/or standards were then compared to the ratios for control tubes (i.e., no stimulating agonist). The abilities of test compounds to stimulate phosphatidylinositol turnover were determined with the aid of a computer program.

[3] = system: cell surface receptors that bind bombesin; conditions: background section; read-out: KD of high-affinity cell surface receptors that bind bombesin; cited from earlier work

T1 sequence (P21729 whole entry): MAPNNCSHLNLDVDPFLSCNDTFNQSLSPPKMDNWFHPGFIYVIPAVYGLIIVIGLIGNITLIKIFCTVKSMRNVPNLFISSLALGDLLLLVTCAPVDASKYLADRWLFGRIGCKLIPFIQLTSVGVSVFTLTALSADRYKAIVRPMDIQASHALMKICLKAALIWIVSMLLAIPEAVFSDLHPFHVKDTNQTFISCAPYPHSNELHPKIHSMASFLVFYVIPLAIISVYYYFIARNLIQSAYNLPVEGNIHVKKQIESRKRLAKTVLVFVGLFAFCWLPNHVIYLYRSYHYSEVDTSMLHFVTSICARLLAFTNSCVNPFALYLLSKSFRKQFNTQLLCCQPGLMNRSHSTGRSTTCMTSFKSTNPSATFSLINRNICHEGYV

| Structure (SMILES) | Kd [1] [nM] | Antagonist [2] | Agonist [2] | also measured |
| --- | --- | --- | --- | --- |
| CC(C)C[C@@H](C(N)=O)S(=O)(=O)C[C@H](Cc1ccccc1)NC(=O)[C@H](Cc1c[nH]cn1)NC(=O)CNC(=O)[C@@H](NC(=O)[C@H](C)NC(=O)[C@H](Cc1c[nH]c2ccccc12)NC(=O)[C@H](CCC(N)=O)NC(=O)[C@@H]1CCC(=O)N1)C(C)C [Analog IX, (Phe^8 .PSI.[CH2 SO2]Leu^9 litorin] ([pGlu]QWAVGH-X2; C-terminus assumed) | 9.9 | 30 |  | Agonist/antagonist character in words ([2]; text under Table 1): antagonist |
| COC(=O)/C(=C\c1ccccc1)NC(=O)[C@H](CC(C)C)NC(=O)[C@H](Cc1c[nH]cn1)NC(=O)CNC(=O)[C@@H](NC(=O)[C@H](C)NC(=O)[C@H](Cc1c[nH]c2ccccc12)NC(=O)[C@H](CCC(N)=O)NC(=O)[C@@H](Cc1ccccc1)NC(C)=O)C(C)C [Analog VII, (Ac-D-Phe^1,Leu^8,Δ^E Phe^9)litorin-OMe] | 18.6 |  |  |  |
| CSCC[C@H](NC(=O)[C@H](CC(C)C)NC(=O)[C@H](Cc1cnc[nH]1)NC(=O)CNC(=O)[C@@H](NC(=O)[C@H](C)NC(=O)[C@H](Cc1c[nH]c2ccccc12)NC(=O)[C@H](CCC(N)=O)NC(=O)[C@H](CC(N)=O)NC(=O)CNC(=O)[C@H](CC(C)C)NC(=O)[C@H](CCCN=C(N)N)NC(=O)[C@H](CCC(N)=O)NC(=O)[C@@H]1CCC(=O)N1)C(C)C)C(N)=O [Analog II, Bombesin] |  | - | + | Kd [3]: 1 nM |
| COC(=O)/C(=C/c1ccccc1)N(C)C(=O)[C@H](CC(C)C)NC(=O)[C@H](Cc1c[nH]cn1)NC(=O)[C@@H](C)NC(=O)[C@@H](NC(=O)[C@H](C)NC(=O)[C@H](Cc1c[nH]c2ccccc12)NC(=O)[C@H](CCC(N)=O)NC(=O)[C@@H](Cc1ccccc1)NC(C)=O)C(C)C [Analog VIII, (Ac-D-Phe^1,D-Ala^6,Leu^8,N(Me)Δ^Z Phe^9) litorin-OMe] (Ac-[dF]QWAV[dA]HL[X1]-OMe) |  |  |  | Kd ([1]; competitive binding vs 125I-GRP, mouse pancreas, read-out: Kd): 65.3 nM |
| COC(=O)/C(=C/c1ccccc1)NC(=O)[C@H](CC(C)C)NC(=O)[C@H](Cc1c[nH]cn1)NC(=O)CNC(=O)[C@@H](NC(=O)[C@H](C)NC(=O)[C@H](Cc1c[nH]c2ccccc12)NC(=O)[C@H](CCC(N)=O)NC(=O)[C@@H](Cc1ccccc1)NC(C)=O)C(C)C [Analog IV, (Ac-D-Phe^1,Leu^8,Δ^Z Phe9)litorin-OMe] | 1.18 |  |  |  |
| CSCC[C@H](NC(=O)[C@H](Cc1ccccc1)NC(=O)[C@H](Cc1c[nH]cn1)NC(=O)CNC(=O)[C@@H](NC(=O)[C@H](C)NC(=O)[C@H](Cc1c[nH]c2ccccc12)NC(=O)[C@H](CCC(N)=O)NC(=O)[C@@H]1CCC(=O)N1)C(C)C)C(N)=O [Analog III, Litorin] |  | - | + |  |
